# Test results taken from patent US8486977B2, “1,2,3-triazole derivatives for use as stearoyl-CoA desaturase inhibitors” (GlaxoSmithKline LLC, priority 2007, dated 2013).
# Target: T1, SCD (Rattus norvegicus, UniProt P07308)
# T1 construct: SCD-containing rat microsomes (2 μg protein); from tissue
# T1 sequence (P07308 1-358): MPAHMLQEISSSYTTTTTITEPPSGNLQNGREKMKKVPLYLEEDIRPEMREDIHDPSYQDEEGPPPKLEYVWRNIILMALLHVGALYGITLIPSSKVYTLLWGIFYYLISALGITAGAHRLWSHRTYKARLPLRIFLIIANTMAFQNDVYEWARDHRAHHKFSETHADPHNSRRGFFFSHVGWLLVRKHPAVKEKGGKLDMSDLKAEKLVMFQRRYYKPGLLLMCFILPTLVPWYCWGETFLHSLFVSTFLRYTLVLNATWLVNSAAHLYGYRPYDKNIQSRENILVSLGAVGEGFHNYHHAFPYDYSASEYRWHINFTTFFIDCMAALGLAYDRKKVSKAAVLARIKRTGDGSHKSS
# Assay: in vitro assay for SCD activity based on production of [3H]H2O
# Format: biochemical
# Conditions: SCD-containing rat microsomes (2 μg protein), [9,10-3H] stearoyl Coenzyme A 1 μM, 6 min incubation
# Experimental: The compounds of the present invention may be analysed in vitro for SCD activity using an assay based on the production of [^3H]H2O, which is released during the enzyme-catalyzed generation of the monounsaturated fatty acyl CoA product. The assay is performed in a 96-well filtration plates. The titrated substrate used in the assay is the [9,10-^3H] stearoyl Coenzyme A. After incubation for 6 minutes of SCD-containing rat microsomes (2 μg protein) and substrate (1 μM), the labelled fatty acid acyl-CoA species and microsomes are absorbed with charcoal and separated from [^3H]H2O by centrifugation. The formation of [^3H]H2O is used as a measure of SCD activity. Compounds at concentrations starting at 10 μM to 0.1 nM or vehicle (DMSO) are preincubated for 5 minutes with the microsomes before addition of the substrate. The concentration-responses are fitted with sigmoidal curves to obtain IC50 values.
row,SMILES,IC50
1,"COC(=O)c1cc(NC(=O)c2nnn(Cc3ccccc3)c2C)cc(C(=O)OC)c1 [Dimethyl 5-({[5-methyl-1-(phenylmethyl)-lH-1,2,3-triazol-4-yl]carbonyl}amino)-1,3-benzenedicarboxylate]",> 10 µM
2,"COC(=O)c1cc(NC(=O)c2nnn(Cc3ccc(Cl)c(Cl)c3)c2C)cc(C(=O)OC)c1 [Dimethyl 5-[({1-[(3,4-dichlorophenyl)methyl]-5-methyl-1H-1,2,3-triazol-4-yl}carbonyl)amino]-1,3-benzenedicarboxylate]",> 10 µM
3,"COC(=O)c1cc(NC(=O)c2nnn(Cc3cccc(Cl)c3)c2C)cc(C(=O)OC)c1 [Dimethyl 5-[({1-[(3-chlorophenyl)methyl]-5-methyl-1H-1,2,3-triazol-4-yl}carbonyl)amino]-1,3-benzenedicarboxylate]",> 10 µM
4,"COC(=O)c1cc(NC(=O)c2nnn(Cc3ccc(F)cc3)c2C)cc(C(=O)OC)c1 [Dimethyl 5-[({1-[(4-fluorophenyl)methyl]-5-methyl-1H-1,2,3-triazol-4-yl}carbonyl)amino]-1,3-benzenedicarboxylate]",> 10 µM
5,"COC(=O)c1cccc(NC(=O)c2nnn(Cc3ccc(Cl)c(Cl)c3)c2C)c1C [Methyl 3-[({1-[(3,4-dichlorophenyl)methyl]-5-methyl-1H-1,2,3-triazol-4-yl}carbonyl)amino]-2-methylbenzoate]",> 10 µM
6,"COC(=O)c1cc(NC(=O)c2nnn(Cc3ccc(Cl)c(Cl)c3)c2C)ccc1OC [Methyl 5-[({1-[(3,4-dichlorophenyl)methyl]-5-methyl-1H-1,2,3-triazol-4-yl}carbonyl)amino]-2-(methyloxy)benzoate]",> 10 µM
7,"COc1ccc(NC(=O)c2nnn(Cc3ccc(C(C)C)cc3)c2C)cc1OC [N-[3,4-Bis(methyloxy)phenyl]-5-methyl-1-{[4-(1-methylethyl)phenyl]methyl}-1H-1,2,3-triazole-4-carboxamide]",> 10 µM

# Continued, values first:
row,IC50,SMILES
1,> 10 µM,"CNC(=O)c1cccc(NC(=O)c2nnn(Cc3ccc(Cl)c(Cl)c3)c2C)c1C [1-[(3,4-dichlorophenyl)methyl]-5-methyl-N-{2-methyl-3-[(methylamino)carbonyl]phenyl}-1H-1,2,3-triazole-4-carboxamide]"
2,> 10 µM,"CNC(=O)c1cc(NC(=O)c2nnn(Cc3ccc(Cl)c(Cl)c3)c2C)cc(C(=O)NC)c1 [5-[({1-[(3,4-Dichlorophenyl)methyl]-5-methyl-1H-1,2,3-triazol-4-yl}carbonyl)amino]-N,N′-dimethyl-1,3-benzenedicarboxamide]"
3,> 10 µM,"Cc1c(C(=O)Nc2cc(C(=O)O)cc(C(=O)O)c2)nnn1Cc1cccc(Cl)c1 [5-[({1-[(3-Chlorophenyl)methyl]-5-methyl-1H-1,2,3-triazol-4-yl}carbonyl)amino]-1,3-benzenedicarboxylic acid]"
4,> 10 µM,"COC(=O)c1ccc(NC(=O)c2nnn(Cc3ccccc3)c2C)cc1C(=O)OC [Dimethyl 4-({[5-methyl-1-(phenylmethyl)-lH-1,2,3-triazol-4-yl]carbonyl}amino)-1,2-benzenedicarboxylate]"
